Results reported in patent US20010007152A1, “RECOMBINANT CONSTRUCTS ENCODING T CELL RECEPTORS SPECIFIC FOR HUMAN HLA-RESTRICTED TUMOR ANTIGENS” (priority 1996, published 2001).

Experiments:
HLA A2.1 = biological target: T1, HLA A2.1 (UniProt P01901+P04439, D140Y/D185E/D98H/E176V/G131W/I119V/I121R/I166T/N151K/N90K/Q86G/Q94H/R138H/R169H); assay: Competition assay: inhibition of influenza matrix peptide M1 (58-66) binding to A2.1, read as inhibition of lysis by an M1-specific CTL clone; set-up: species or system human; conditions: test peptide 10 μg vs influenza matrix peptide 0.1 μg; T2-A2.1/K^b target cells
T1 construct: expressed in transfected cells; host or cells: T2-A2.1/K^b cells
Method: Briefly, each test peptide (10 μg) was incubated with radiolabeled target cells (T2-A2.1/K^b, 10^6 target cells labeled with […] ^51Cr at 37° for 1.5 hours) in the presence of an influenza virus matrix protein (0.1 μg). The ability of these peptides to inhibit the binding of the influenza matrix protein peptide MI (58-66) to A2.1 was measured by inhibition of lysis by an M1 (58-66) specific, A2.1 restricted CTL clone.

SAOS.175 = assay: Lysis of tumor cells by peptide-specific CTL; type: cell-based, human; conditions: 6 hours; for Killing of tumor (lysis): SAOS.175, osteosarcoma, A2 +, Her-2 +, no cytokine preincubation; for Killing of tumor (lysis) + CYT: SAOS.175, tumor preincubated 24 hours with 20 ng/ml γ-IFN and 3 ng/ml TNF-α
SV80 = assay: Lysis of tumor cells by peptide-specific CTL; type: cell-based, human; conditions: 6 hours; for Killing of tumor (lysis): SV80, fibroblast, A2 +, Her-2 −, no cytokine preincubation; for Killing of tumor (lysis) + CYT: SV80, tumor preincubated 24 hours with 20 ng/ml γ-IFN and 3 ng/ml TNF-α
MALME-3M = assay: Lysis of tumor cells by peptide-specific CTL; type: cell-based, human; conditions: 6 hours; for Killing of tumor (lysis) + CYT: tumor preincubated 24 hours with 20 ng/ml γ-IFN and 3 ng/ml TNF-α; for Killing of tumor (lysis): melanoma, A2 +, Her-2 +, no cytokine preincubation
CASKI = assay: Lysis of tumor cells by peptide-specific CTL; type: cell-based, human; conditions: 6 hours; for Killing of tumor (lysis) + CYT: tumor preincubated 24 hours with 20 ng/ml γ-IFN and 3 ng/ml TNF-α; for Killing of tumor (lysis): cervix, A2 +, Her-2 +, no cytokine preincubation
BT549 = assay: Lysis of tumor cells by peptide-specific CTL; type: cell-based, human; conditions: 6 hours; for Killing of tumor (lysis): BT549, breast, A2 +, Her-2 +, no cytokine preincubation; for Killing of tumor (lysis) + CYT: BT549, tumor preincubated 24 hours with 20 ng/ml γ-IFN and 3 ng/ml TNF-α
SW480 = assay: Lysis of tumor cells by peptide-specific CTL; type: cell-based, human; conditions: 6 hours; for Killing of tumor (lysis): SW480, colon, A2 +, Her-2 +, no cytokine preincubation; for Killing of tumor (lysis) + CYT: SW480, tumor preincubated 24 hours with 20 ng/ml γ-IFN and 3 ng/ml TNF-α
Hep-G2 = assay: Lysis of tumor cells by peptide-specific CTL; type: cell-based, human; conditions: 6 hours; for Killing of tumor (lysis): Hep-G2, hepatoma, A2 +, Her-2 +, no cytokine preincubation; for Killing of tumor (lysis) + CYT: Hep-G2, tumor preincubated 24 hours with 20 ng/ml γ-IFN and 3 ng/ml TNF-α
T98G = assay: Lysis of tumor cells by peptide-specific CTL; type: cell-based, human; conditions: 6 hours; for Killing of tumor (lysis) + CYT: tumor preincubated 24 hours with 20 ng/ml γ-IFN and 3 ng/ml TNF-α; for Killing of tumor (lysis): glioblastoma, A2 +, Her-2 +, no cytokine preincubation
U87G = assay: Lysis of tumor cells by peptide-specific CTL; type: cell-based, human; conditions: 6 hours; for Killing of tumor (lysis) + CYT: tumor preincubated 24 hours with 20 ng/ml γ-IFN and 3 ng/ml TNF-α; for Killing of tumor (lysis): glioblastoma, A2 +, Her-2 −, no cytokine preincubation
NCl.H1355 = assay: Lysis of tumor cells by peptide-specific CTL; type: cell-based, human; conditions: 6 hours; for Killing of tumor (lysis): NCl.H1355, lung, A2 +, Her-2 +, no cytokine preincubation; for Killing of tumor (lysis) + CYT: NCl.H1355, tumor preincubated 24 hours with 20 ng/ml γ-IFN and 3 ng/ml TNF-α
LG-2 = assay: Lysis of tumor cells by peptide-specific CTL; type: cell-based, human; conditions: 6 hours; for Killing of tumor (lysis): LG-2, EBV-trans., A2 +, Her-2 −, no cytokine preincubation; for Killing of tumor (lysis) + CYT: LG-2, tumor preincubated 24 hours with 20 ng/ml γ-IFN and 3 ng/ml TNF-α
SKMEL-5 = assay: Lysis of tumor cells by peptide-specific CTL; type: cell-based, human; conditions: 6 hours; for Killing of tumor (lysis): SKMEL-5, melanoma, A2 +, Her-2 +, no cytokine preincubation; for Killing of tumor (lysis) + CYT: SKMEL-5, tumor preincubated 24 hours with 20 ng/ml γ-IFN and 3 ng/ml TNF-α
MCF-7 = assay: Lysis of tumor cells by peptide-specific CTL; type: cell-based, human; conditions: 6 hours; for Killing of tumor (lysis): MCF-7, breast, A2 +, Her-2 +, no cytokine preincubation; for Killing of tumor (lysis) + CYT: MCF-7, tumor preincubated 24 hours with 20 ng/ml γ-IFN and 3 ng/ml TNF-α
OVCAR-5 = assay: Lysis of tumor cells by peptide-specific CTL; type: cell-based, human; conditions: 6 hours; for Killing of tumor (lysis): OVCAR-5, ovarian, A2 +, Her-2 +, no cytokine preincubation; for Killing of tumor (lysis) + CYT: OVCAR-5, tumor preincubated 24 hours with 20 ng/ml γ-IFN and 3 ng/ml TNF-α
JY = assay: Lysis of tumor cells by peptide-specific CTL; type: cell-based, human; conditions: 6 hours; for Killing of tumor (lysis) + CYT: tumor preincubated 24 hours with 20 ng/ml γ-IFN and 3 ng/ml TNF-α; for Killing of tumor (lysis): lymphoma, A2 +, Her-2 −, no cytokine preincubation
MDA.MB435 = assay: Lysis of tumor cells by peptide-specific CTL; type: cell-based, human; conditions: 6 hours; for Killing of tumor (lysis): MDA.MB435, breast, A2 −, Her-2 +, no cytokine preincubation; for Killing of tumor (lysis) + CYT: MDA.MB435, tumor preincubated 24 hours with 20 ng/ml γ-IFN and 3 ng/ml TNF-α
ST486 = assay: Lysis of tumor cells by peptide-specific CTL; type: cell-based, human; conditions: 6 hours; for Killing of tumor (lysis): ST486, lymphoma, A2 +, Her-2 −, no cytokine preincubation; for Killing of tumor (lysis) + CYT: ST486, tumor preincubated 24 hours with 20 ng/ml γ-IFN and 3 ng/ml TNF-α
MDA.MB231 = assay: Lysis of tumor cells by peptide-specific CTL; type: cell-based, human; conditions: 6 hours; for Killing of tumor (lysis): MDA.MB231, breast, A2 +, Her-2 +, no cytokine preincubation; for Killing of tumor (lysis) + CYT: MDA.MB231, tumor preincubated 24 hours with 20 ng/ml γ-IFN and 3 ng/ml TNF-α
U2-OS = assay: Lysis of tumor cells by peptide-specific CTL; type: cell-based, human; conditions: 6 hours; for Killing of tumor (lysis) + CYT: tumor preincubated 24 hours with 20 ng/ml γ-IFN and 3 ng/ml TNF-α; for Killing of tumor (lysis): osteosarcoma, A2 +, Her-2 +, no cytokine preincubation

TLQGLGISWL [H6, Her-2/neu peptide 444-453]
% INHIBITION (HLA A2.1): 56%

KLVGKLNWA [HIV-9K, HIV POL peptide, known to be immunogenic, used as a control, reference compound]
Killing of tumor (lysis) (SAOS.175): 18% | Killing of tumor (lysis) + CYT (SAOS.175): 11 | Killing of tumor (lysis) (SV80): 2% | Killing of tumor (lysis) + CYT (SV80): 2 | Killing of tumor (lysis) + CYT (MALME-3M): 1 | Killing of tumor (lysis) (MALME-3M): 2% | Killing of tumor (lysis) + CYT (CASKI): 11 | Killing of tumor (lysis) (CASKI): 8% | Killing of tumor (lysis) (BT549): 2% | Killing of tumor (lysis) + CYT (BT549): 15 | Killing of tumor (lysis) (SW480): 1% | Killing of tumor (lysis) + CYT (SW480): 4 | Killing of tumor (lysis) (Hep-G2): 1% | Killing of tumor (lysis) + CYT (Hep-G2): 8 | Killing of tumor (lysis) + CYT (T98G): 13 | Killing of tumor (lysis) (T98G): 9% | Killing of tumor (lysis) + CYT (U87G): 1 | Killing of tumor (lysis) (U87G): 5% | Killing of tumor (lysis) (NCl.H1355): 7% | Killing of tumor (lysis) + CYT (NCl.H1355): 25 | Killing of tumor (lysis) (LG-2): 1% | Killing of tumor (lysis) + CYT (LG-2): 1 | Killing of tumor (lysis) (SKMEL-5): 5% | Killing of tumor (lysis) + CYT (SKMEL-5): 4 | Killing of tumor (lysis) (MCF-7): 3% | Killing of tumor (lysis) + CYT (MCF-7): 7 | Killing of tumor (lysis) (OVCAR-5): 10% | Killing of tumor (lysis) + CYT (OVCAR-5): 12 | Killing of tumor (lysis) + CYT (JY): 1 | Killing of tumor (lysis) (JY): 2% | Killing of tumor (lysis) (MDA.MB435): 4% | Killing of tumor (lysis) + CYT (MDA.MB435): 3 | Killing of tumor (lysis) (ST486): 1% | Killing of tumor (lysis) + CYT (ST486): 1 | Killing of tumor (lysis) (MDA.MB231): 3% | Killing of tumor (lysis) + CYT (MDA.MB231): 14 | Killing of tumor (lysis) + CYT (U2-OS): 24 | Killing of tumor (lysis) (U2-OS): 18%

TLSPGKNGV [H24, Her-2/neu peptide 1172-1180]
% INHIBITION (HLA A2.1): 57%

KIPVAIKVL [H14, Her-2/neu peptide 747-755]
% INHIBITION (HLA A2.1): 35%

DLLEKGERL [H19, Her-2/neu peptide 933-941]
% INHIBITION (HLA A2.1): 36%

VLVKSPNHV [H17, Her-2/neu peptide 851-859]
% INHIBITION (HLA A2.1): 12%

VMAGVGSPYV [H7]
Killing of tumor (lysis) (SAOS.175): 27% | Killing of tumor (lysis) + CYT (SAOS.175): 35 | Killing of tumor (lysis) (SV80): 2% | Killing of tumor (lysis) + CYT (SV80): 2 | Killing of tumor (lysis) + CYT (MALME-3M): 14 | Killing of tumor (lysis) (MALME-3M): 4% | Killing of tumor (lysis) + CYT (CASKI): 20 | Killing of tumor (lysis) (CASKI): 9% | Killing of tumor (lysis) (BT549): 2% | Killing of tumor (lysis) + CYT (BT549): 36 | Killing of tumor (lysis) (SW480): 2% | Killing of tumor (lysis) + CYT (SW480): 17 | Killing of tumor (lysis) (Hep-G2): 4% | Killing of tumor (lysis) + CYT (Hep-G2): 29 | Killing of tumor (lysis) + CYT (T98G): 93 | Killing of tumor (lysis) (T98G): 29% | Killing of tumor (lysis) + CYT (U87G): 1 | Killing of tumor (lysis) (U87G): 1% | Killing of tumor (lysis) (NCl.H1355): 13% | Killing of tumor (lysis) + CYT (NCl.H1355): 62 | Killing of tumor (lysis) (LG-2): 1% | Killing of tumor (lysis) + CYT (LG-2): 3 | Killing of tumor (lysis) (SKMEL-5): 16% | Killing of tumor (lysis) + CYT (SKMEL-5): 40 | Killing of tumor (lysis) (MCF-7): 7% | Killing of tumor (lysis) + CYT (MCF-7): 40 | Killing of tumor (lysis) (OVCAR-5): 13% | Killing of tumor (lysis) + CYT (OVCAR-5): 23 | Killing of tumor (lysis) + CYT (JY): 2 | Killing of tumor (lysis) (JY): 4% | Killing of tumor (lysis) (MDA.MB435): 1% | Killing of tumor (lysis) + CYT (MDA.MB435): 1 | Killing of tumor (lysis) (ST486): 5% | Killing of tumor (lysis) + CYT (ST486): 8 | % INHIBITION (HLA A2.1): 55% | Killing of tumor (lysis) (MDA.MB231): 26% | Killing of tumor (lysis) + CYT (MDA.MB231): 89 | Killing of tumor (lysis) + CYT (U2-OS): 62 | Killing of tumor (lysis) (U2-OS): 30%

ELVSEFSRMA [H21, Her-2/neu peptide 971-980]
% INHIBITION (HLA A2.1): 25%

DLVDAEEYL [H23, Her-2/neu peptide 1016-1024]
% INHIBITION (HLA A2.1): 35%

LVSEFSRMA [H22, Her-2/neu peptide 972-980]
% INHIBITION (HLA A2.1): 14%

HLYQGOQW [H12]
% INHIBITION (HLA A2.1): 15%

QLMPYGCLL [H16, Her-2/neu peptide 799-807]
% INHIBITION (HLA A2.1): 50%

RLLQETELV [H13]
% INHIBITION (HLA A2.1): 56%

VLQGLPREYV [H8, Her-2/neu peptide 546-555]
% INHIBITION (HLA A2.1): 43%

DIDETEYHA [H18, Her-2/neu peptide 871-879]
% INHIBITION (HLA A2.1): 37%

ELVSEFSRM [H20, Her-2/neu peptide 971-979]
% INHIBITION (HLA A2.1): 5%
